Measurements reported in US5436229A, “Bisulfite adducts of arginine aldehydes” (Eli Lilly and Company, priority 1994, dated 1995).
Non-standard residues stand in square brackets, D forms with d. Residues, ends and D or L forms follow the SMILES beside them. dNMeCha = CN[C@H](CC1CCCCC1)C(=O)O

What was measured:
[1] = molecular target: T1, tissue plasminogen activator (t-PA) (Homo sapiens, UniProt P00750); test: Serine protease inhibition (Kass), t-PA; format: biochemical
T1 construct: purchased American Diagnostica, Greenwich, Conn

Bovine trypsin = molecular target: T2, Bovine trypsin (Bos taurus, UniProt P00760); test: Serine protease inhibition (Kass), trypsin; format: biochemical
T2 construct: Bovine trypsin is purchased from Worthington Biochemicals; purchased Worthington Biochemicals, Freehold, N.J
T2 sequence (P00760 24-246): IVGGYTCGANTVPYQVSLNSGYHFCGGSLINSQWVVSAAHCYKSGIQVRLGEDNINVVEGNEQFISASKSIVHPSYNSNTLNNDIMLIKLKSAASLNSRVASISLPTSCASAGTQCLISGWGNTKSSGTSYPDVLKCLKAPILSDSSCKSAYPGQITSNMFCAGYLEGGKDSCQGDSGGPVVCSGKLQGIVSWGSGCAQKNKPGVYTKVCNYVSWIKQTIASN
Summary of the method: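 Chromogenic p-nitroanilide substrate assays run as for human thrombin; trypsin with N-Benzoyl-Phe-Val-Arg-p-nitroanilide, human factor Xa with N-Benzoyl-Ile-Glu-Gly-Arg-p-nitroanilide. Values are association constants (Kass).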

Human plasmin = molecular target: T3, Human plasmin (Homo sapiens, UniProt P00747); test: Serine protease inhibition (Kass), plasmin; format: biochemical
T3 construct: Human plasmin is purchased from Boehringer Mannheim; purchased Boehringer Mannheim, Indianapolis, Ind
Summary of the method: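 Kass values come from the thrombin chromogenic procedure applied to fibrinolytic proteases. t-PA (nt-PA single chain, or mt-PA6) paired with substrate H-D-Ile-Pro-Arg-p-nitroanilide; human plasmin paired with H-D-Val-Leu-Lys-p-nitroanilide.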

[2] = Index of Bioavailability (plasma TT AUC, oral vs i.v.); format: in vivo; details: rats, oral vs i.v. bolus
Text: Assays are done in duplicate and averaged.
Each sample population represents alternating sequential time points.

human thrombin = human thrombin (Homo sapiens, UniProt P00734); test: Thrombin amidase inhibition (Kass), chromogenic substrate; format: biochemical
Summary of the method: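 Kass, in liter per mole, was averaged over several compound concentrations, using free thrombin from a rate standard curve and free inhibitor as added minus bound. Hydrolysis of chromogenic substrate (0.25 mg/ml solution) was monitored at 405 nm with human thrombin (8 NIH units/ml solution) in Tris-NaCl buffer pH 7.4, compound in 50% aqueous methanol.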

T1 sequence (P00750 36-562): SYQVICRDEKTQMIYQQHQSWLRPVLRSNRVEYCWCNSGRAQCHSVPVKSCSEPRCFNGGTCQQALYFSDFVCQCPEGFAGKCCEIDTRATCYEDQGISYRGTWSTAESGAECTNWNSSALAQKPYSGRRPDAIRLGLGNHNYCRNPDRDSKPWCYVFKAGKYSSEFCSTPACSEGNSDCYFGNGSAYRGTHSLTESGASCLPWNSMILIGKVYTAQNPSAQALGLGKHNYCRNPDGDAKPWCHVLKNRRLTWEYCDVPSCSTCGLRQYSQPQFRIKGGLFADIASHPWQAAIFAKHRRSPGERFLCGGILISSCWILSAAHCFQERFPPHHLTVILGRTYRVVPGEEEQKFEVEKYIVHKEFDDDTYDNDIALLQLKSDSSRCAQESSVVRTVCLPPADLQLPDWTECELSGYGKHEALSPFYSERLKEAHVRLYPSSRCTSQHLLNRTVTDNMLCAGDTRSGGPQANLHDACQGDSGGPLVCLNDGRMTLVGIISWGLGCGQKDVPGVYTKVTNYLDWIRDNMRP
T3 sequence (P00747 581-810 limits assumed): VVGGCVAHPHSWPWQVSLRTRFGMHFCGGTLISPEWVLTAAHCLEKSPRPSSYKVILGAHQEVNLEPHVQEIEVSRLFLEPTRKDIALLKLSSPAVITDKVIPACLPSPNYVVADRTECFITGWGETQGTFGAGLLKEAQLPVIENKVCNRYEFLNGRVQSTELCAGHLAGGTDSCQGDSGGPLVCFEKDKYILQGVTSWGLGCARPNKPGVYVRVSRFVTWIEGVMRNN
T3 sequence (P00747 97-580 partner limits assumed): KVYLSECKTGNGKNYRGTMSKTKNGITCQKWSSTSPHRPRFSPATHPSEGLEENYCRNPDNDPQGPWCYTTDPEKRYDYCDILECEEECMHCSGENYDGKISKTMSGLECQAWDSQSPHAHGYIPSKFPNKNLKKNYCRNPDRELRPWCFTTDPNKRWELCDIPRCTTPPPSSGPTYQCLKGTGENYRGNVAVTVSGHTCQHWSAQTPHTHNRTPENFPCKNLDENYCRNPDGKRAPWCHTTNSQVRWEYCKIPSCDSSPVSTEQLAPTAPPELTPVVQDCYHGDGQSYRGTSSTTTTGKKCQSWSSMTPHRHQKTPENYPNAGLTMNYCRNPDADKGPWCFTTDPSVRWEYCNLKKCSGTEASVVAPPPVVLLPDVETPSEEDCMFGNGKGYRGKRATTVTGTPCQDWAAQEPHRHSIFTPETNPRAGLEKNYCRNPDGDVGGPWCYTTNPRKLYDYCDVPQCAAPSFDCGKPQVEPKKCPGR

Row | SMILES | Kass t-PA [1] | Kass Trypsin (Bovine trypsin) | Kass Plasmin (Human plasmin) | Percent Relative Activity (Index of Bioavailability) [2] | Kass Human Thrombin (human thrombin)
1 | N=C(N)NCCCC(C=O)NC(=O)C1CCCN1C(=O)C1CC2CCCCC2CN1.O=S(=O)(O)O [80 (Step F), D-3-(cis)Piq-Pro-Arg-H.H2 SO4] | 0.5 L/mol × 10^6 | 183 L/mol × 10^6 | 1.6 L/mol × 10^6 | 46% | 56 L/mol × 10^6
2 | CN[C@H](CC1CCCCC1)C(=O)N1CCC[C@H]1C(=O)N[C@H](C=O)CCCNC(=N)N.Cl [Example 75, N-methyl-D-cyclohexylalanyl-L-Prolinyl-L-Arginine Aldehyde Hydrochloride] (H-[dNMeCha]-Pro-Arg-aldehyde) | 0.37 L/mol × 10^6 | 160 L/mol × 10^6 | 7.7 L/mol × 10^6 | 13% | 590 L/mol × 10^6
